According to PMC6848746 (Psychopharmacology, 2019):
Where two headings read alike, the source gives them in different places.

Legend:
α1A = molecular target: T1, α1A (Homo sapiens, UniProt P35348); assay: Radioligand binding
T1 sequence (P35348 1-466): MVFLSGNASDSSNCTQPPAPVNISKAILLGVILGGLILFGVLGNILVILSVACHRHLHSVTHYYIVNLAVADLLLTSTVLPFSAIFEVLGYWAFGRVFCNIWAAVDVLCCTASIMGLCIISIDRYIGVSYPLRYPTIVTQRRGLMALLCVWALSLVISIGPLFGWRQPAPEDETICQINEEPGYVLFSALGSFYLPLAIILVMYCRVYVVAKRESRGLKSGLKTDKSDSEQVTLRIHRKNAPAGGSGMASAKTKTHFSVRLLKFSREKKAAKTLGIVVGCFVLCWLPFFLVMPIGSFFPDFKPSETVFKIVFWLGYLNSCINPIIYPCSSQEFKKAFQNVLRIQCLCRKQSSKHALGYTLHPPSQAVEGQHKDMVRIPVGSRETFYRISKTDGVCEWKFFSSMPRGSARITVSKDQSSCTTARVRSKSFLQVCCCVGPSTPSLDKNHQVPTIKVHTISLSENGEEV

σ1 = σ1 (Rattus norvegicus, UniProt Q9R0C9); assay: Radioligand binding
5-HT7 = 5-HT7 (Homo sapiens, UniProt P34969); assay: Radioligand binding
rats = settings: drug discrimination, cited from earlier work
5-HT1D = 5-HT1D (Homo sapiens, UniProt P28221); assay: Radioligand binding
DAT = DAT (Homo sapiens, UniProt Q01959); assay: Radioligand binding
β3 = β3 (Homo sapiens, UniProt P13945); assay: Radioligand binding
D5 = D5 (Homo sapiens, UniProt P21918); assay: Radioligand binding
α2B = molecular target: T2, α2B (Homo sapiens, UniProt P18089); assay: Radioligand binding; settings: for fold lower affinity for α2B compared to 2-AI: binding, [3H]rauwolscine
T2 sequence (P18089 1-450): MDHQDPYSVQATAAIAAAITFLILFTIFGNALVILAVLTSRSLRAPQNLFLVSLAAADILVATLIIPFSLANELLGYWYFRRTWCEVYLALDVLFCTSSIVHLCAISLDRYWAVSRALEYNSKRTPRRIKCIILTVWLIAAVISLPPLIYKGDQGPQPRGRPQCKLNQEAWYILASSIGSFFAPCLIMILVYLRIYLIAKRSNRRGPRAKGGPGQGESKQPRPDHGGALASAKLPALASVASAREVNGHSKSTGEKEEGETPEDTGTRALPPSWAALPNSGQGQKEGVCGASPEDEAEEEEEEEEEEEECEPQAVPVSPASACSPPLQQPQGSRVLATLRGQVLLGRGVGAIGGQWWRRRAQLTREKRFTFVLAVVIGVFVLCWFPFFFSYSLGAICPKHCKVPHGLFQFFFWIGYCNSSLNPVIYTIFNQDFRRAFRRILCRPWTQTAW

5-HT1A = molecular target: T3, 5-HT1A (Homo sapiens, UniProt P08908); assay: Radioligand binding
T3 sequence (P08908 1-422): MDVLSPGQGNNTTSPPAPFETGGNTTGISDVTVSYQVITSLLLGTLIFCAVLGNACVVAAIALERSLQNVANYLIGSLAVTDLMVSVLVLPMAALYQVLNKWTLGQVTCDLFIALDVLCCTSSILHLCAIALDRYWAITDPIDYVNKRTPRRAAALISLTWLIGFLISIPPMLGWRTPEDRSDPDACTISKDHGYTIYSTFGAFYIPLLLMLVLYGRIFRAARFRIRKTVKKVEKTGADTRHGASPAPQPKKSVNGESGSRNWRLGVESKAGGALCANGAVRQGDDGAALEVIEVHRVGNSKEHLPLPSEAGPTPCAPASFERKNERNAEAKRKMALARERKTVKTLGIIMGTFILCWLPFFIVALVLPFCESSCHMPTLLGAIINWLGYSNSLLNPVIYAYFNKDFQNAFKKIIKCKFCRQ

α2A = molecular target: T4, α2A (Homo sapiens, UniProt P08913); assay: Radioligand binding; settings: for fold lower affinity for α2A compared to 2-AI: binding, [3H]rauwolscine
T4 sequence (P08913 1-465): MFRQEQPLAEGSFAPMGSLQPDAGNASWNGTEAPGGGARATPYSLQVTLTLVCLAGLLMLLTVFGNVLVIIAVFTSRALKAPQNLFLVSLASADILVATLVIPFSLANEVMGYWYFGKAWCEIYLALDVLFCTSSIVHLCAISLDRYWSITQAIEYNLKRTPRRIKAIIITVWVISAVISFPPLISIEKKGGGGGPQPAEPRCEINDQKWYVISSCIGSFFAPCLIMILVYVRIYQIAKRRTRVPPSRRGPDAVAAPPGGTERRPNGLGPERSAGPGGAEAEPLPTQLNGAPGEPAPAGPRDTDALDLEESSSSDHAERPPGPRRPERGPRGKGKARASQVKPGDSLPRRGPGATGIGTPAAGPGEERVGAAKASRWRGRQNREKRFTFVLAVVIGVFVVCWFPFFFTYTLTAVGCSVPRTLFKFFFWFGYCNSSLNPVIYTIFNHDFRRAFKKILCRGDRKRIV

NET = NET (Homo sapiens, UniProt P23975); assay: Radioligand binding
SERT = SERT (Rattus norvegicus, UniProt P31652); assay: SERT-mediated release of [3H]5-HT from rat brain synaptosomes; assay type: biochemical; settings: for Emax: read-out: SERT-mediated release Emax
5-HT1E = 5-HT1E (Homo sapiens, UniProt P28566); assay: Radioligand binding
D4 = molecular target: T5, D4 (Homo sapiens, UniProt P21917); assay: Radioligand binding
T5 sequence (P21917 1-419): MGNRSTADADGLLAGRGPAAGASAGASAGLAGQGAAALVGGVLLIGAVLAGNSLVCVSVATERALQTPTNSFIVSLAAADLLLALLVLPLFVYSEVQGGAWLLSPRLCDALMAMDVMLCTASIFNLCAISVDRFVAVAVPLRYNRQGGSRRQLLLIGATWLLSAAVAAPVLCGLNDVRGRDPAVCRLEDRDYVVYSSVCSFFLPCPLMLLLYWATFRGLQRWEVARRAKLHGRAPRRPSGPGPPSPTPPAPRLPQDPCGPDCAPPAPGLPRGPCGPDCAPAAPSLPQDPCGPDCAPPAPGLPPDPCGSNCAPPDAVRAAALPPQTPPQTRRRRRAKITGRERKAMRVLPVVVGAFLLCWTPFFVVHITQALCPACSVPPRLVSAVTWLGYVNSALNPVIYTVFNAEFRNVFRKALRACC

[1] = ref Oberlender and Nichols, 1991

Chain of NET (P23975 whole entry): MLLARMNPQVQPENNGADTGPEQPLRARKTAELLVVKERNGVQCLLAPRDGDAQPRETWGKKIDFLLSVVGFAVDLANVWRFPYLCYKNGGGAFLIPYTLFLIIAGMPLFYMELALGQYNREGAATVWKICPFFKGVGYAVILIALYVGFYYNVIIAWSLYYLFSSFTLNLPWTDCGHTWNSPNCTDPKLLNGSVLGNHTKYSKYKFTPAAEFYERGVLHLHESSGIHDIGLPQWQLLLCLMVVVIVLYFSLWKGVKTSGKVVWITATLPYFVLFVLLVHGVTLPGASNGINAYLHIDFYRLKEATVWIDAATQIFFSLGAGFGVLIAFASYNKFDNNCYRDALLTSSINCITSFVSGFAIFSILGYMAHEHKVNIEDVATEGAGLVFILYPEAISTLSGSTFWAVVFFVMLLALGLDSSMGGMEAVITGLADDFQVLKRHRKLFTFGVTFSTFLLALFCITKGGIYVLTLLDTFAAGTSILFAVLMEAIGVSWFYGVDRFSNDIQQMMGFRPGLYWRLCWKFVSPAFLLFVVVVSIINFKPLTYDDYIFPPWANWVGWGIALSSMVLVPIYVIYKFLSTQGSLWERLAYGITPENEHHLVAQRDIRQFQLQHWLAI
Chain of D5 (P21918 whole entry): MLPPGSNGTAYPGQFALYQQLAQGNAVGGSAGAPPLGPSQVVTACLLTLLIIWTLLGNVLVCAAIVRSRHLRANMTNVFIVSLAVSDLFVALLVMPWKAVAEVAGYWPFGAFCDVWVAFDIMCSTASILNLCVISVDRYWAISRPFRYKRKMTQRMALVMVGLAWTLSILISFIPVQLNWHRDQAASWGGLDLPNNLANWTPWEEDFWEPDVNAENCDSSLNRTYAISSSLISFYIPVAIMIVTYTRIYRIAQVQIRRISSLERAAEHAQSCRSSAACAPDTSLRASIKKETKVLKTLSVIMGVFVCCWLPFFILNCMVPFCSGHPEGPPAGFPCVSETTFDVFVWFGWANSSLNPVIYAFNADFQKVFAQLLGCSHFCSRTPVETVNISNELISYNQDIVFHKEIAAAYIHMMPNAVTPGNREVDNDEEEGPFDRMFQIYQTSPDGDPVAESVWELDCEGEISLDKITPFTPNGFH
Chain of SERT (P31652 whole entry): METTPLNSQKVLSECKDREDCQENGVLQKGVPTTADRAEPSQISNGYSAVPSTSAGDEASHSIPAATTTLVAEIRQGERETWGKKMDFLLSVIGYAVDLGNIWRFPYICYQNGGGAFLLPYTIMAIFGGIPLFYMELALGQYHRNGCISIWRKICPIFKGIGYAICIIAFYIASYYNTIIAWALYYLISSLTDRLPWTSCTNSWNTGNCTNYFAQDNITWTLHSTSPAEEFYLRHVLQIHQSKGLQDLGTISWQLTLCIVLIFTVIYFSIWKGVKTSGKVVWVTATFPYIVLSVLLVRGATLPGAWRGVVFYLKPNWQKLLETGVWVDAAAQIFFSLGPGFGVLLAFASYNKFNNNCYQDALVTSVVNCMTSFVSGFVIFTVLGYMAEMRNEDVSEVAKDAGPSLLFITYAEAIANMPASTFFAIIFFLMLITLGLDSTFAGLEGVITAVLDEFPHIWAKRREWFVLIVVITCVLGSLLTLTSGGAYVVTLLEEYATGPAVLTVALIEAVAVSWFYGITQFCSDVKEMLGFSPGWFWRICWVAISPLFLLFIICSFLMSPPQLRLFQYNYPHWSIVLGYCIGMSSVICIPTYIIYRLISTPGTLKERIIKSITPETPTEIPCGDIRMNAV
Chain of 5-HT1D (P28221 whole entry): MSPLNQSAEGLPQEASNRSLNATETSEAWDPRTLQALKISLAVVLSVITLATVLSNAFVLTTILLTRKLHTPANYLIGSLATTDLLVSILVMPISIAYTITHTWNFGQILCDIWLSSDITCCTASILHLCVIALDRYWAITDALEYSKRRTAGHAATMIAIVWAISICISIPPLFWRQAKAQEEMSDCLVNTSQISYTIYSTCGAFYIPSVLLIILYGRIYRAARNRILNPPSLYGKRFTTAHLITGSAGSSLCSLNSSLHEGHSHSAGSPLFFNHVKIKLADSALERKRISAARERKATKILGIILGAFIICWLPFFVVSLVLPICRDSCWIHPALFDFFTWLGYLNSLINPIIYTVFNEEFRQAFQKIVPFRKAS
Chain of σ1 (Q9R0C9 whole entry): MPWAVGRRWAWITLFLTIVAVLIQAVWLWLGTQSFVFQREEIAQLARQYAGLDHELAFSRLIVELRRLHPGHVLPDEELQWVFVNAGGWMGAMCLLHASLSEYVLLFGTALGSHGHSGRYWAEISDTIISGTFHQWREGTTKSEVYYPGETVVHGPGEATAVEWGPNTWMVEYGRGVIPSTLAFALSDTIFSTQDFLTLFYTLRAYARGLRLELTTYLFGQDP
Chain of DAT (Q01959 whole entry): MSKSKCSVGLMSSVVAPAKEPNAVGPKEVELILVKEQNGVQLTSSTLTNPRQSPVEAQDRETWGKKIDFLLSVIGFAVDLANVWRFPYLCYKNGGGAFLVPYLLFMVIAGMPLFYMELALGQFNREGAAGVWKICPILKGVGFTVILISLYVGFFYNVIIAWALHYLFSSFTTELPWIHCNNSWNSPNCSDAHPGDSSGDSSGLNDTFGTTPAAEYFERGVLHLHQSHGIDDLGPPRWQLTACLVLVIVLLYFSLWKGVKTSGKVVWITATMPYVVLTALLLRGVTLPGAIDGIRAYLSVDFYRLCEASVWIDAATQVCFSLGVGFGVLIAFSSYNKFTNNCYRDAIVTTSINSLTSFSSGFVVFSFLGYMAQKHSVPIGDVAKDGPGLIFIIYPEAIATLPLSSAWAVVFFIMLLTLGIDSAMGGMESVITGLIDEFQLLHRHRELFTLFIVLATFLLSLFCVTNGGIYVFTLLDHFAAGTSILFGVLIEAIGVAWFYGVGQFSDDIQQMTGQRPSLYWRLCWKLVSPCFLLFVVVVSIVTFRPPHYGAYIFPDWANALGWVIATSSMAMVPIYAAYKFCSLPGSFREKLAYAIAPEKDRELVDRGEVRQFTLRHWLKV
Chain of 5-HT7 (P34969 whole entry): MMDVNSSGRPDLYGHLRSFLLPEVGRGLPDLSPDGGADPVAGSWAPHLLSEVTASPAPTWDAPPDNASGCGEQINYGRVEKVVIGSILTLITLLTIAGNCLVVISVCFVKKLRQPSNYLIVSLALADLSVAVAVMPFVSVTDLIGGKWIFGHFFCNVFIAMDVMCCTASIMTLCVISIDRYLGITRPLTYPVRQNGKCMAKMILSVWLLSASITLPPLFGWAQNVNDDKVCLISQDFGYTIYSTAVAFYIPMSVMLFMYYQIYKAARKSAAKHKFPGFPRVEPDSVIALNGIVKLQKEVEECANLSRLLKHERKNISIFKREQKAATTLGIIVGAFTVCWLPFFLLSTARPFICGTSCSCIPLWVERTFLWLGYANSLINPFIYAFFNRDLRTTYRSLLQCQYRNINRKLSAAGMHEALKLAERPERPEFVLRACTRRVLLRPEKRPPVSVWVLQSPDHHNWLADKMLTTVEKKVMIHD
Chain of β3 (P13945 whole entry): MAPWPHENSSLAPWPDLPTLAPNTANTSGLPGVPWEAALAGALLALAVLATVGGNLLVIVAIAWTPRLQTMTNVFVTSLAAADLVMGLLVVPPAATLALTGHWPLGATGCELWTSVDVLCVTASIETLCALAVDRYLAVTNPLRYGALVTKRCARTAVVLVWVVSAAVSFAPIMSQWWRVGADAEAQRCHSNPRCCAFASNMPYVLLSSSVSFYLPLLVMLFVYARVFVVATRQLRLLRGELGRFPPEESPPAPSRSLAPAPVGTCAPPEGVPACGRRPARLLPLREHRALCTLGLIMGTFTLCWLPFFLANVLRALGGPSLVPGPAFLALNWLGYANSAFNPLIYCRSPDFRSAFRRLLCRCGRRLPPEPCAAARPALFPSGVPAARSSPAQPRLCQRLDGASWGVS
Chain of 5-HT1E (P28566 whole entry): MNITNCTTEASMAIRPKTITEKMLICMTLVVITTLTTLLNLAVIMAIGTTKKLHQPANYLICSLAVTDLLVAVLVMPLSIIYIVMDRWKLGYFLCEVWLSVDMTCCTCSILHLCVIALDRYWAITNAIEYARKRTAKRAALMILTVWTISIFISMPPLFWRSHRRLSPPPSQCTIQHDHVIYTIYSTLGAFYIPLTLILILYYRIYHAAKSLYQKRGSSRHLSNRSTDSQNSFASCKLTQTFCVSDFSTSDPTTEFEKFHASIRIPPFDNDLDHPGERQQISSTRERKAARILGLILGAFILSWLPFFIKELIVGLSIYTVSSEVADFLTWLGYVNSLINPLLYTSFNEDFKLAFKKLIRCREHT

Compound | Ki (α1A) | Ki (σ1) | Ki (5-HT7) | substitution in (+)-amphetamine-trained rats (rats; [1]) | Ki (5-HT1D) | Ki (DAT) | Ki (β3) | Ki (D5) | Ki (α2B) | Ki (5-HT1A) | Ki (α2A) | Ki (NET) | EC50 (SERT) | Emax (SERT) | Ki (5-HT1E) | Ki (D4) | fold lower affinity for α2B compared to 2-AI (α2B) | fold lower affinity for α2A compared to 2-AI (α2A) | other results
NC1Cc2cc3c(cc2C1)OCO3 [MDAI, 5,6-methylenedioxy-2-aminoindan] | > 10 µM | > 10 µM | > 10 µM | did not substitute | > 10 µM | > 10 µM | > 10 µM | > 10 µM | 1.12 µM | > 10 µM | 0.322 ± 0.114 µM | > 10 µM | 0.114 ± 0.015 µM | 102% | > 10 µM | > 10 µM |  |  | drug-appropriate responding in (+)-methamphetamine-trained rats (rats; ref Gatch et al. 2016): 75%; substitution in cocaine-trained rats (rats; ref Gatch et al. 2016): full substitution; substitution for MDMA and S-(+)-MBDB (rats; ref Nichols et al. 1990, Oberlender and Nichols 1990, Malmusi et al. 1996, Gatch et al. 2016): substituted
NC1Cc2ccccc2C1 [2-AI, 2-aminoindan] | > 10 µM | > 10 µM | > 10 µM | partial substitution | > 10 µM | > 10 µM | > 10 µM | > 10 µM | 0.211 ± 0.081 µM | > 10 µM | 0.134 ± 0.031 µM | > 10 µM | > 10 µM |  | > 10 µM | > 10 µM |  |  | substitution for (+)-amphetamine (rats; ref Glennon et al. 1984): fully substituted
COc1ccc2c(c1)CC(N)C2 (centres unmarked) [5-MeO-AI, 5-methoxy-2-aminoindan] | > 10 µM | > 10 µM | > 10 µM |  | > 10 µM | > 10 µM | > 10 µM | > 10 µM | 1.55 µM | 2.5 µM | 0.751 ± 0.338 µM | > 10 µM | 0.134 ± 0.013 µM | 104% | > 10 µM | > 10 µM | 5 fold | 5 fold | 
COc1cc2c(cc1C)CC(N)C2 (centres unmarked) [MMAI, 5-methoxy-6-methyl-2-aminoindan] | > 10 µM | > 10 µM | 1.01 µM |  | 2.56 µM | > 10 µM | > 10 µM | > 10 µM | 1.23 µM | 1.08 µM | 0.724 ± 0.477 µM | > 10 µM | 0.031 ± 0.005 µM | 99% | > 10 µM | > 10 µM | 5 fold | 5 fold | substitution in (+)-amphetamine-trained rats (rats; ref Johnson et al. 1991b): did not substitute; substitution in rats trained to discriminate MDMA and S-(+)-MBDB (rats; ref Johnson et al. 1991b): fully substituted
